This passage reports CC50 results from patent publication US20230158136A1 (priority 2021, published 2023).

Where no end group is shown, it is not given here.

A short description of this series: in vitro. The note with it: human, 293T cells.

The CC50 is the concentration at which the toxic effect on the cells reaches its halfway point. A lower CC50 goes with harm at low concentration.

The substance KKALLAHALHLLALLALHLAHALKKA-NH2 [LAH4] yielded a CC50 at 24 h above 125 µg/mL.
